“And” between values parts separate entries of the source, which are not always exact repeats. Equal entries are not always repeated.
Target: T1, TMEM16A (Homo sapiens, UniProt Q5XXA6, DEL476-501)
T1 construct: expressed in transfected cells
T1 sequence (Q5XXA6 with tags, fused parts or gaps isoform Q5XXA6-5 DEL539-564): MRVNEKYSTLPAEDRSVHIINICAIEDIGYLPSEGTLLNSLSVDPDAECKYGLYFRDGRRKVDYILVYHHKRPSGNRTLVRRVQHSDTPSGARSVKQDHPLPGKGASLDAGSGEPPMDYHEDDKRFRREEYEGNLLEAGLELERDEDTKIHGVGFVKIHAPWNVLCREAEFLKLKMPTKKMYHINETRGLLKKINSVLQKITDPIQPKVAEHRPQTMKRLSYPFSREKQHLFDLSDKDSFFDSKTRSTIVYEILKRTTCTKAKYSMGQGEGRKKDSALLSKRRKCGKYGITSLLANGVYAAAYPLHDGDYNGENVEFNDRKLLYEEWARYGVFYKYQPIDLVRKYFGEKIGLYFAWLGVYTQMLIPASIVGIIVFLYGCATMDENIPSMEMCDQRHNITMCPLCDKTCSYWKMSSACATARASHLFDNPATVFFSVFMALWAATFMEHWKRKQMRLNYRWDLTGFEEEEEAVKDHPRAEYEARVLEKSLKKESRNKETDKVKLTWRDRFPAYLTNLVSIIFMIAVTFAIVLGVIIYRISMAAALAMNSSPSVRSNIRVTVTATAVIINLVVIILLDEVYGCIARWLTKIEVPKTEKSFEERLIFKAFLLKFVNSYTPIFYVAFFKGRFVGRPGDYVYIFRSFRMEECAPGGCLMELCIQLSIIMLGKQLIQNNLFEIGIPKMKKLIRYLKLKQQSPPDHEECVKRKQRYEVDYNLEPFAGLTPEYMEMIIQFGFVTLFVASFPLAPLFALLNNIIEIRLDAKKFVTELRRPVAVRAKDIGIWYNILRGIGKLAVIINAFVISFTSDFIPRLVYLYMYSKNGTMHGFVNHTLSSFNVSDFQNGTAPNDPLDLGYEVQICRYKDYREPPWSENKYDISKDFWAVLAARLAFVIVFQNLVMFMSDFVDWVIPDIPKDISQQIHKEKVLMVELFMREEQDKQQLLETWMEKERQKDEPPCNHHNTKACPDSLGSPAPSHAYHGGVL
Assay: Apical membrane current in TMEM16A-expressing FRT cells
Assay type: cell-based
Description: FRT cells were stably transfected with human TMEM16A (TMEM16A(abc), cDNA provided by Dr. Luis Galietta, Gaslini Institute, Genoa, Italy) and the halide sensor YFP-H148Q/1152L/F46L. Cells were plated in 96-well black-walled microplates (Corning Inc., Corning, N.Y.) at a density of 20,000 cells per well in Coon's modified F12 medium supplemented with 5% fetal calf serum, 2 mM L-glutamine, 100 U/mL penicillin and 100 μg/mL streptomycin. The human submandibular cell line A253 (ATCC HTB 41) was cultured in complete McCoy's 5A medium supplemented with 10% fetal bovine serum, 100 U/mL penicillin and 100 μg/mL streptomycin.
Snapwell inserts containing TMEM16A-expressing FRT, HBE, CF HBE or HTG cells were mounted in Ussing chambers (Physiologic Instruments, San Diego, Calif.). Amiloride, CFTRinh-172, UTP, ATP, T16Ainh-A01 and TMEM16A activators were added to the apical solution and an equal volume of vehicle was added at the same time to the basolateral solution. Symmetrical HCO3^−-buffered solutions were used for HBE, CF HBE and HTG cells. For FRT cells, the hemichambers were filled with a half-Cl^− solution (apical) and the HCO3^−-buffered solution (basolateral), and the basolateral membrane was permeabilized with 250 μg/mL amphotericin B, as described (Namkung et al. (2010), supra). Cells were bathed for a 10 min stabilization period and aerated with 95% O2/5% CO2 at 37° C. or room temperature. Apical membrane current (for FRT cells) and short-circuit current were measured using an EVC4000 Multi-Channel V/I Clamp (World Precision Instruments, Sarasota, Fla.) and recorded using PowerLab/8sp (AD Instruments, Castle Hill, Australia).
The current increase was sustained for >10 min (FIG. 2B, inset). […] Data are also shown for a second Fact compound (Fact9, see Table 1) in FIG. 9.

**Q.** For CCc1c(C)nc(SCC(=O)Nc2nc(-c3ccc(OC)cc3)cs2)[nH]c1=O [T16Ainh-A01, reference compound], which “inhibition of Eact- and Fact-induced Cl^− current” value (T16Ainh-A01 10 μM) is on record?
**A.** The value was “inhibited”.

**Q.** With O=C(Nc1ccc(Br)cc1)c1cccc(-n2cnnn2)c1 [Fact, N-(4-bromophenyl)-3-(1H-tetrazol-1-yl)benzamide] as the compound, how does the “TMEM16A current following 1 μM Eact (synergy)” value (1-3 μM Fact after 1 μM Eact) read?
**A.** The value was “greatly increased TMEM16A current”.

**Q.** What about the TMEM16A activation alone (1-3 μM Fact alone) of the same compound?
**A.** Its TMEM16A activation alone is “little TMEM16A activation”.

**Q.** And the EC50 (EC50 from concentration-activation data, apical membrane current)?
**A.** Its EC50 is 3 to 6 µM and ~6 µM.

**Q.** And the “maximal TMEM16A activation compared to ATP effect” value (apical membrane current)?
**A.** Its value is “maximal TMEM16A activation”.

**Q.** What about the “Cl^− current (apical membrane current)” value (basolateral membrane permeabilized, Cl^− gradient, ATP 100 μM) of the same compound?
**A.** The value was “large, concentration-dependent increases in Cl^− current”.
